Here are results for 15 compounds from US8101642B2, “3-substituted propanamine compounds” (SK Biopharmaceuticals Co., Ltd., priority 2008, dated 2012).

In experiment [1] the target is T1, human recombinant dopamine transporter (Homo sapiens, UniProt Q01959).
T1 construct: expressed in transfected cells; host or cells: CHO-K1
The experiment can be described thus: Dopamine transporter reuptake inhibition assay ([3H]Dopamine uptake). It counts as cell-based. The note with it: CHO-K1 cells with human recombinant dopamine transporter; for inhibition at 0.1 µM: 100 nM, read-out: Inhibition % at 100 nM DA reuptake. The procedure: Dopamine Transporter Reuptake Inhibition Assay
CHO-K1 cells with human recombinant dopamine transporter were plated. Test compounds were pre-incubated with cells (4×10^5/ml) in modified Tris-HEPES buffer pH 7.1 for 20 minutes at 25° C. and then they were incubated for additional 10 minutes after 50 nM of [^3H]Dopamine was added. A lysate is obtained from solubilized cells and counted to determine [^3H]Dopamine uptake. Reduction of [^3H]Dopamine uptake by 50 percent or more (≧50%) relative to 10 μM nomifensine indicates significant inhibitory activity.

Experiment [2] concerns the target T2, human recombinant norepinephrine transporter (Homo sapiens, UniProt P23975).
T2 construct: expressed in transfected cells; host or cells: MDCK
The experiment can be described thus: Norepinephrine transporter reuptake inhibition assay ([3H]Norepinephrine uptake). The class given is cell-based. The note with it: for inhibition at 0.1 µM: 100 nM, MDCK cells with human recombinant norepinephrine transporter, read-out: Inhibition % at 100 nM NE reuptake. On the procedure:
Norepinephrine Transporter Reuptake Inhibition Assay
MDCK cells with stably expressed human recombinant norepinephrine transporter were plated one day. Test compounds were pre-incubated with cells (2×10^5/ml) in modified Tris-HEPES buffer pH 7.1 for 20 minutes at 25° C. and then they were incubated for additional 10 minutes after 25 nM of [^3H]Norepinephrine was added. A lysate was obtained from solubilized cells and the filtered lysate was counted to determine [^3H]Norepinephrine uptake. Reduction of [^3H]Norepinephrine uptake by 50 percent or more (≧50%) relative to 10 μM desipramine indicates significant inhibitory activity.

Experiment [3] addresses T3, human serotonin transporter (Homo sapiens, UniProt P31645).
T3 construct: expressed in transfected cells; host or cells: HEK-293
The experiment can be described thus: Serotonin transporter reuptake inhibition assay ([3H]Serotonin uptake). It counts as cell-based. The note with it: recombinant HEK-293 cells with human serotonin transporter; for inhibition at 0.1 µM: HEK293, 100 nM, read-out: Inhibition % at 100 nM 5-HT reuptake. The procedure:
Serotonin Transporter Reuptake Inhibition Assay
The recombinant HEK-293 cells with human serotonin transporter were plated. Test compounds described in table 1 were pre-incubated with cells (2×10^5/ml) in modified Tris-HEPES buffer pH 7.1 for 20 minutes at 25° C. and then they were incubated for additional 10 minutes after 65 nM of [^3H]Serotonin was added. Bound cells were filtered and counted to determine [^3H]Serotonin uptake. Reduction of [^3H]Serotonin uptake by 50 percent or more (≧50%) relative to 10 μM fluoxetine indicates significant inhibitory activity.

Experiment [4] deals with mice. As to the kind of experiment: Acetic acid induced writhing test (AA writhing test). The class given is in vivo. To be noted: Mus musculus, 0.5 h, 30sc, reduction in number of writhing vs control group, 0.8% acetic acid ip 30 min after compound. From the text:
Acetic Acid Induced Writhing Test (AA Writhing Test)
The Acetic acid-induced writhing test is a well-established nociceptive test using a chemical stimulus. Although several animal models of nociceptive tests have been developed to examine and compare the anti-nociceptive effects of different drugs, the anti-nociceptive effects of antidepressants appear to be test-dependent. Indeed, the acetic acid-induced writhing test is more sensitive to antidepressants than other tests using thermal, mechanical or electrical stimuli.
The animals were subcutaneously treated with the test compound with an injection volume of 10 ml/kg. The group treated with 30% PEG400 or saline served as a control group. Thirty minutes later, the mice were intraperitoneally treated with 0.8% (v/v) acetic acid. Each mouse was then placed in a cage for individual observation. The writhing numbers for 10 minutes were counted. The writhe is operationally defined as a contraction of the abdomen followed by stretching of the hind limbs. The potent ability of the compounds was determined as percent value of reduction in the number of writhing comparing to the control group.
In general terms: An intraperitoneal irritant provokes the stretching counted in writhing tests.

Experiment [5] concerns mice. The experiment can be described thus: Forced swimming test in mice (FST). The class given is in vivo. The note with it: Mus musculus, 0.5 h, 30ip, reduction in duration of immobility vs control group, 30 min after administration. On the procedure: Forced swimming Test in Mice (FST)
The Forced swimming test is an animal model based on the rodent's behavioral repertoire for screening drugs with potential antidepressant activity. As in several other models used for this goal, an uncontrollable stress stimulus produces behavioral changes that are sensitive to antidepressant treatment.
The mice were intraperitoneally treated with the test compound with an injection volume of […]. The group treated with 30% PEG400 served as a control group. Thirty minutes following administration, mice were individually forced to swim in a transparent glass vessel (14 cm high, 11.5 cm in diameter) filled with 10 cm of water at 25° C. The total duration of immobility (second) was measured during the last 4 minutes of a single 6-min test session. Mice were considered immobile when they made no further attempts to escape other than the movements necessary to keep their heads above the water. The potent ability of the compounds was determined as percent value of reduction in the duration of immobility comparing to the control group.

Experiment [6] relates to mice. As to the kind of experiment: Marble burying test. The class given is in vivo. The note with it: reduction in number of marbles buried vs control group, 30 min after treatment. An excerpt:
The Marble burying test is a screening tool for putative anxiolytics. In this test, control mice naturally bury glass marbles in the cage bedding and the administration of anxiolytic compounds, including Diazepam, reduces the number of buried marbles. Positive compounds in the marble burying test including selective serotonin reuptake inhibitor may be especially beneficial to obsessive-compulsive disorder.
A group of mice was intraperitoneally treated with test compound dissolved in 30% PEG400 with an injection volume of 10 ml/kg. The group treated with only 30% PEG400 served as a control group. Thirty minutes after the treatment, the animals were individually placed in a polycarbonate cage which was same as used for animal housing with an open top located within a quiet room. Each cage consisted of ⅛ inch corn bedding 5 cm deep. Twenty four clean glass marbles (15 mm diameter) were evenly spaced in four rows of six on top of the bedding. Each mouse was left in the cage for 30 minutes and the number of marbles buried (buried more than ½ or ⅔) was counted. The potent ability of the compounds was determined as percent value of reduction in the number of marbles buried comparing to the control group.

T2 sequence (P23975 whole entry): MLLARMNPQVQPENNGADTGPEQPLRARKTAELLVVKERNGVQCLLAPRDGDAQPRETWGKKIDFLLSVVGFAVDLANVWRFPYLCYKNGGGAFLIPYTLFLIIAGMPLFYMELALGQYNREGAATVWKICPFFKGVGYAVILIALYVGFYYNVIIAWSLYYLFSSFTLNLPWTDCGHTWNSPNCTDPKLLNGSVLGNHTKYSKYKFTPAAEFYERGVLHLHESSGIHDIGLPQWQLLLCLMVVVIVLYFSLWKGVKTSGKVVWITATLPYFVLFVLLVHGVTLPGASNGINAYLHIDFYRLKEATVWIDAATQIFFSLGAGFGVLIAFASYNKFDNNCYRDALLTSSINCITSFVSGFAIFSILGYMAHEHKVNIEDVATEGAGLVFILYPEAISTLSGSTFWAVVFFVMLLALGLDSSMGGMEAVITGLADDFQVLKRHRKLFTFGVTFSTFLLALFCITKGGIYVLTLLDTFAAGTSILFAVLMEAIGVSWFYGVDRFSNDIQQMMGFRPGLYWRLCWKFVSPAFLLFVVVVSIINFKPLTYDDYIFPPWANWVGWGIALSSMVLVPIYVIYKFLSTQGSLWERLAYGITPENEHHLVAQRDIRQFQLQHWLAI
T3 sequence (P31645 whole entry): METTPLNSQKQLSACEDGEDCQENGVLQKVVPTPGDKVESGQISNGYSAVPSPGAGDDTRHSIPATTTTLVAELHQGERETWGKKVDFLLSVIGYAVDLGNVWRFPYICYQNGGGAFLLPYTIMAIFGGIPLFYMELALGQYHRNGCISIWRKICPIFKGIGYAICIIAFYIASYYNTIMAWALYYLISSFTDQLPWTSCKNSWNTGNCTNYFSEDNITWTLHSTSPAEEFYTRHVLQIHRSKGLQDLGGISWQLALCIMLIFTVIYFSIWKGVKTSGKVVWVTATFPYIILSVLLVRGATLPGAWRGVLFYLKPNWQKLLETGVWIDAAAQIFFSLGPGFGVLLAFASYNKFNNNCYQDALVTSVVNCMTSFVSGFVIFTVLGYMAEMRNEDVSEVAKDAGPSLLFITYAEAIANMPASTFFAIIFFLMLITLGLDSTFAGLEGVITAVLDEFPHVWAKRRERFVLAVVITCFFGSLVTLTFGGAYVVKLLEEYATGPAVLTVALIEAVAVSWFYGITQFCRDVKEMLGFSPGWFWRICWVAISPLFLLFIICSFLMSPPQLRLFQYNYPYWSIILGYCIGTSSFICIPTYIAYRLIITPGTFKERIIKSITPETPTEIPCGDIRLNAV
T1 sequence (Q01959 whole entry): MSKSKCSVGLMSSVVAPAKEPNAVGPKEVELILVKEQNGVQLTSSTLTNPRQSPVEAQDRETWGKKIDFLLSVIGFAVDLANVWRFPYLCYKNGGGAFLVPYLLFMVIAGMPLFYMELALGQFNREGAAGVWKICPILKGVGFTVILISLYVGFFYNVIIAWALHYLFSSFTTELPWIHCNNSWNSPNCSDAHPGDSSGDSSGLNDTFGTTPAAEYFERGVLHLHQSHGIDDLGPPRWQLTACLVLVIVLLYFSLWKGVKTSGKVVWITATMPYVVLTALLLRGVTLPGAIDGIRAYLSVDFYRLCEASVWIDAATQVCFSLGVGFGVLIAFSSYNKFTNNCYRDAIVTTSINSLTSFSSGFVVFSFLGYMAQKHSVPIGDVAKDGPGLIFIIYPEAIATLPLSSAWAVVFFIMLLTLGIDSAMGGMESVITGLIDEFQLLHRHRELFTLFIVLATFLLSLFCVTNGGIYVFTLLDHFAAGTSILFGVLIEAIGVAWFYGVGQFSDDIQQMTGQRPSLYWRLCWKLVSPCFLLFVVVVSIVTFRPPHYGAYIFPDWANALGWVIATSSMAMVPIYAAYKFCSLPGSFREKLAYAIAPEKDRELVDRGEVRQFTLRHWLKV

For orientation: inhibition means the relative decrease from the control value, in per cent. In the case of `CN(C)CCC(c1ccc2cc(Cl)ccc2c1)n1ncnn1` (stereo not drawn) [Example 14, [3-(6-Chloro-naphthalen-2-yl)-3-tetrazol-2-yl-propyl]-dimethyl-amine], the inhibition at 0.1 µM is 18% in experiment [1], 32% in experiment [2] and 46% in experiment [3].

What is called inhibition in vivo is the share of the control response that was lost under treatment. A higher inhibition in vivo goes with a response far below the control. For the compound `CNCCC(c1ccc(Cl)c(Cl)c1)n1ncnn1` (stereo not drawn) [Example 2, [3-(3,4-Dichloro-phenyl)-3-tetrazol-2-yl-propyl]-methyl-amine], the inhibition in vivo at 30 mg/kg with mice [4] stood at 50.3%; in the experiment with mice [5], 82.4%. Besides, in experiment [1], the “Inhibition % at 100 nM DA reuptake” value is reported as 48%. For the same compound, the “Inhibition % at 100 nM NE reuptake” value in experiment [2] was determined as 56%. Moreover, in the experiment on mice [6], the “Reduction % at 30ip” value is recorded as 100%. For the same compound, the “Inhibition % at 100 nM 5-HT reuptake” value in experiment [3] was 35%.

For the compound `Cc1nnn(C(CCN(C)C)c2ccc3cc(F)ccc3c2)n1` (stereo not drawn) [Example 51, [3-(6-Fluoro-naphthalen-2-yl)-3-(5-methyl-tetrazol-2-yl)-propyl]-dimethyl-amine], the inhibition in vivo at 30 mg/kg in the experiment with mice [4] stood at 51.4%; in the experiment on mice [5] it was 24.5%. Moreover, the results for the inhibition at 0.1 µM in experiment [1], in experiment [2] and in experiment [3] were 6%, 10% and 61%, respectively. For the same compound, the “Reduction % at 30ip” value with mice [6] was 72.4%.

`CNCC[C@@H](c1ccc2ccccc2c1)n1nnc(C)n1` [Example 188, (3S)-Methyl-[3-(5-methyl-tetrazol-2-yl)-3-naphthalen-2-yl-propyl]-amine]: the inhibition in vivo at 30 mg/kg in the experiment with mice [4] was found to be 39.5%; in the experiment on mice [5] it was 36.7%. Further, the figures for the inhibition at 0.1 µM in experiment [1], in experiment [2] and in experiment [3] were 7%, 79% and 82%, respectively. Besides, the “Reduction % at 30ip” value in the experiment with mice [6] is reported as 70.7%.

With `CNCCC(c1cc2ccccc2cc1OC)n1nnc(C)n1` (stereo not drawn) [Example 135, [3-(3-Methoxy-naphthalen-2-yl)-3-(5-methyl-tetrazol-2-yl)-propyl]-methyl-amine], the inhibition at 0.1 µM in experiment [1] was -1%; in experiment [2] it was 17%; in experiment [3], 47%.

Regarding `CNCCC(c1ccc2cc(OC)ccc2c1)n1ncnn1` (stereo not drawn) [Example 166, [3-(6-Methoxy-naphthalen-2-yl)-3-tetrazol-2-yl-propyl]-methyl-amine], the figures for the inhibition at 0.1 µM in experiment [1], in experiment [2] and in experiment [3] were 4%, 70% and 88%, respectively. In the experiment on mice [5], the inhibition in vivo at 30 mg/kg came out at 28.9%.

Turning to `CNCCC(c1ccc2cc(F)ccc2c1)n1nnc(C)n1` (stereo not drawn) [Example 137, [3-(6-Fluoro-naphthalen-2-yl)-3-(5-methyl-tetrazol-2-yl)-propyl]-methyl-amine], the inhibition at 0.1 µM stood at 10% in experiment [1], 39% in experiment [2] and 58% in experiment [3].

Turning to `CNCCC(c1ccc2ccccc2c1)n1ncnn1` (stereo not drawn) [Example 119, Methyl-(3-naphthalen-2-yl-3-tetrazol-2-yl-propyl)-amine], the results for the inhibition at 0.1 µM in experiment [1], in experiment [2] and in experiment [3] were 10%, 84% and 78%, respectively. For the same compound, at 30 mg/kg the inhibition in vivo with mice [5] was 43.2%.

`CNCC[C@@H](c1ccc(Cl)c(Cl)c1)n1nnc(C)n1` [Example 129, (3S)-3-(3,4-dichlorophenyl)-N-methyl-3-(5-methyl-2H-tetrazol-2-yl)propan-1-amine]: the inhibition in vivo at 30 mg/kg in the experiment on mice [4] was 94.4%; in the experiment with mice [5], 36.7%. Also, the inhibition at 0.1 µM amounted to 62% in experiment [1], 84% in experiment [2] and 43% in experiment [3]. Besides, in the experiment with mice [6], the “Reduction % at 30ip” value came out at 94.3%.

For the compound `COc1ccc2cc(C(CCN(C)C)n3ncnn3)ccc2c1` (stereo not drawn) [Example 21, [3-(6-Methoxy-naphthalen-2-yl)-3-tetrazol-2-yl-propyl]-dimethyl-amine], the inhibition at 0.1 µM in experiment [1] is 36%; in experiment [2], 39%; in experiment [3], 44%.

In the case of `CNCCC(c1ccc2cc(OC)ccc2c1)n1nnc(C)n1` (stereo not drawn) [Example 167, [3-(6-Methoxy-naphthalen-2-yl)-3-(5-methyl-tetrazol-2-yl)-propyl]-methyl-amine], the inhibition in vivo at 30 mg/kg turned out to be 52.1% in the experiment with mice [4] and 17.9% in the experiment on mice [5]. For the same compound, the inhibition at 0.1 µM in experiment [1] is 3%; in experiment [2], 84%; in experiment [3], 82%. Besides, the “Reduction % (at 10ip)” value with mice [6] (10ip) is recorded as 56.9%.

On to `CN(C)CCC(c1ccc(Cl)c(Cl)c1)n1ncnn1` (stereo not drawn) [Example 1, [3-(3,4-Dichloro-phenyl)-3-tetrazol-2-yl-propyl]-dimethyl-amine], for which the inhibition in vivo at 30 mg/kg stood at 55.3% in the experiment with mice [4] and 24.9% with mice [5]. Moreover, the inhibition at 0.1 µM in experiment [1] came out at 58%; in experiment [2] it was 37%; in experiment [3], 27%. Further, the “Reduction % at 30ip” value with mice [6] is listed as 54.8%.

As to `CNCCC(c1ccc2cc(C)ccc2c1)n1ncnn1` (stereo not drawn) [Example 122, Methyl-[3-(6-methyl-naphthalen-2-yl)-3-tetrazol-2-yl-propyl]-amine], the results for the inhibition at 0.1 µM in experiment [1], in experiment [2] and in experiment [3] were 3%, 55% and 93%, respectively. The same compound showed an inhibition in vivo at 30 mg/kg in the experiment on mice [5] of 43.7%.

Take `CN(C)CCC(c1ccc2cc(F)ccc2c1)n1ncnn1` (stereo not drawn) [Example 50, [3-(6-Fluoro-naphthalen-2-yl)-3-tetrazol-2-yl-propyl]-dimethyl-amine]: the results for the inhibition in vivo at 30 mg/kg in the experiment with mice [4] and in the experiment on mice [5] were 53.8% and 35%, respectively. The inhibition at 0.1 µM worked out at 7% in experiment [1], 12% in experiment [2] and 61% in experiment [3]. In the experiment on mice [6], the “Reduction % at 30ip” value is recorded as 86.2%.

`CNCCC(c1ccc2cc(F)ccc2c1)n1ncnn1` (stereo not drawn) [Example 136, [3-(6-Fluoro-naphthalen-2-yl)-3-tetrazol-2-yl-propyl]-methyl-amine]: the inhibition at 0.1 µM in experiment [1] amounted to 6%; in experiment [2], 25%; in experiment [3] it was 59%.
